Laboratory results published in US9872874B2 (Cyclacel Limited, priority 2012, dated 2018).

Columns and labels:
H2AX staining = assay: Skin biopsies to assess DNA damage (H2AX staining) in the Phase I study; type: in vivo, patients
Procedure: (§1) At least 3 patients were evaluated per dose level.

[1] = phase I, single agent; cited from earlier work
colon cancer = conditions: model of colon cancer, compared with gemcitabine or 5-FU; cited from earlier work
[2] = Phase I study of sequential sapacitabine and seliciclib, Schedule 2: dose escalation, MTD, DLT and adverse events; type: in vivo; conditions: Schedule 2: sapacitabine b.i.d. days 1-7, seliciclib b.i.d. days 8-10, 11 days of rest; 27 patients
Procedure: Phase I Study of Sequential Sapacitabine and Seliciclib in Patients with Advanced Solid Tumors
as §1

A549 cells = conditions: twenty-four hour treatment; cited from earlier work

| SMILES | increase in H2AX staining post-sapacitabine (H2AX staining; day 8 vs pre-treatment, n=16, P=0.007) [fold] | dose limiting toxicity [1] | tolerability in humans [1] | increasing survival and preventing spread of colon cancer metastases to the liver (colon cancer) | MTD and recommended phase II dose (RP2D) [2] [mg b.i.d.] | further increase in H2AX staining post-seliciclib (H2AX staining; day 11 vs day 8, n=12, P=0.069) [fold] | expression of key genes involved in HR (BRCA1 and RAD50) and NHEJ (Ku80, DNA-PK and NHEJ1) (A549 cells) |
| --- | --- | --- | --- | --- | --- | --- | --- |
| CCCCCCCCCCCCCCCC(=O)Nc1ccn(C2O[C@H](CO)[C@@H](O)[C@@H]2C#N)c(=O)n1 (stereo partly drawn) [sapacitabine, 1-(2-C-cyano-2-dioxy-β-D-arabino-pentofuranosyl)-N^4-palmitoyl cytosine] | 2.3 | myelosuppression | well tolerated | superior to either gemcitabine or 5-FU | 50 | – | – |
| CC[C@H](CO)Nc1nc(NCc2ccccc2)c2ncn(C(C)C)c2n1 [seliciclib, 6-benzylamino-2-[(R)-1-ethyl-2-hydroxyethylamino]-9-isopropylpurine] | – | – | – | – | 1200 | 0.58 | significant downregulation |
